Molecular target: T1, Isoform 2 of Nuclear receptor ROR-alpha (Alpha-2) (Homo sapiens, UniProt P35398)
T1 sequence (P35398 whole entry): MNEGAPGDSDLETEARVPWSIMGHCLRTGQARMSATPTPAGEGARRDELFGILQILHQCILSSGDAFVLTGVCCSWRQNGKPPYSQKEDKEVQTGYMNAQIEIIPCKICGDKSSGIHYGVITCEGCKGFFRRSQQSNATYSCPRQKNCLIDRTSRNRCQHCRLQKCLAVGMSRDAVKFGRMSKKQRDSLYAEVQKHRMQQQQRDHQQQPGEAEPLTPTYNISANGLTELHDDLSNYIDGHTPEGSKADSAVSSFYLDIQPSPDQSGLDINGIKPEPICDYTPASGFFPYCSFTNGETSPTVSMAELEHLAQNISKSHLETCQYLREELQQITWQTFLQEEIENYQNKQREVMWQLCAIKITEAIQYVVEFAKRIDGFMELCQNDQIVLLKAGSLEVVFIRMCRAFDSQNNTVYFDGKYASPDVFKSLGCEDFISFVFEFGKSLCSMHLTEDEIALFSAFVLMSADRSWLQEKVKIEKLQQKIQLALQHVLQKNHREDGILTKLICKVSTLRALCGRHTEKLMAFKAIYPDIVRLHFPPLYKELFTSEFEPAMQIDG
Assay: activators of RORA ligand-binding domain fusion – cell-based, CHO-K1, Gal4-RORA LBD, luciferase luminescence, counter-screen for SF-1 activator project, dose response (AID 675)
Conditions: not given

EC50 [nM] | SMILES
> 11000 | CC(C)(CC(=O)O)Cc1nc(-c2ccc(Cl)cc2)no1 [4-[3-(4-chlorophenyl)-1,2,4-oxadiazol-5-yl]-3,3-dimethyl-butanoic acid]
> 1220 | COc1ccc2nc(Nc3nc(C)c(C(C)=O)s3)sc2c1 [1-[2-[(6-methoxy-1,3-benzothiazol-2-yl)amino]-4-methyl-1,3-thiazol-5-yl]ethanone]
653 | O=C(Nc1ccc(-c2cn3ccsc3n2)cc1)C1CC1 [MLS000053249]
2160 | CCOc1ccc(OCC)c(NC(=O)C2CCCN2S(=O)(=O)c2cccc3cccnc23)c1 (stereo not given) [MLS000119093]
731 | CCOC(=O)c1[nH]c2ccc(C)cc2c1N [MLS000079379]
> 99000 | O=C(NCC1CCCO1)c1coc2nc3ccccc3nc12 (stereo not given) [MLS000046703]
> 1220 | O=C(NCc1ccco1)c1cc2c(s1)CCCCC2 [MLS000065859]
1220 | CC(=O)c1cccc(NC(=O)c2cnn3ccccc23)c1 [MLS000118777]
1730 | COc1cccc(C(=O)Nc2cccc(-c3nnc(-c4ccccc4)o3)c2)c1 [3-methoxy-N-[3-(5-phenyl-1,3,4-oxadiazol-2-yl)phenyl]benzamide]
636 | CCOC(=O)N1CCN(S(=O)(=O)c2ccc(C(=O)Nc3sc4c(c3C#N)CCC4)cc2)CC1 [4-[4-[(3-cyano-5,6-dihydro-4H-cyclopenta[b]thiophen-2-yl)carbamoyl]phenyl]sulfonylpiperazine-1-carboxylic acid ethyl ester]
> 407 | Cc1ccc(C(=O)Nc2ncc(Cc3ccc(F)cc3)s2)o1 [5-Methyl-furan-2-carboxylic acid [5-(4-fluoro-benzyl)-thiazol-2-yl]-amide]
1160 | CC(=N)C(C#N)C(=O)CSc1ccc2c(c1)OCCO2 (stereo not given) [(E)-3-amino-2-[2-(2,3-dihydro-1,4-benzodioxin-6-ylsulfanyl)acetyl]but-2-enenitrile]
9170 | CCCc1cc(C(=O)Nc2ccccc2SC)no1 [MLS000116378]
9880 | CC1(C)CC(=O)C(=CNc2ccc3[nH]ncc3c2)C(=O)C1 [SMR000111453]
615 | O=C(COc1ncnc2ccccc12)c1ccc2c(c1)OCCO2 [1-(2,3-dihydro-1,4-benzodioxin-6-yl)-2-(4-quinazolinyloxy)ethanone]
> 99000 | O=C1CCCC(=O)C1=CNc1ccc(O)cc1 [2-[(4-hydroxyanilino)methylidene]cyclohexane-1,3-dione]
1570 | COc1ccc2c(c1)CCc1c(C(=O)N3CCCCCC3)noc1-2 [1-azepanyl-(7-methoxy-4,5-dihydrobenzo[g][1,2]benzoxazol-3-yl)methanone]
> 3670 | CCc1ccc(C(=O)NCc2cccs2)s1 [5-ethyl-N-(2-thenyl)thiophene-2-carboxamide]
693 | COc1ccc(-c2nc3c(Br)c(N)c(Br)cc3o2)cc1 [4,6-bis(bromanyl)-2-(4-methoxyphenyl)-1,3-benzoxazol-5-amine]
609 | C=CCn1c(C)cc(C(=O)CSc2nc(O)c3ccccc3n2)c1C [2-[2-(2,5-dimethyl-1-prop-2-enyl-pyrrol-3-yl)-2-oxidanylidene-ethyl]sulfanyl-1H-quinazolin-4-one]
> 99000 | CC1(C)CC(=O)C(=CNc2ccccc2)C(=O)C1 [SMR000054233]
1270 | COCC(C)NC(=O)c1noc2c1CCc1cc(OC)ccc1-2 (stereo not given) [7-methoxy-N-(1-methoxypropan-2-yl)-4,5-dihydrobenzo[g][1,2]benzoxazole-3-carboxamide]
639 | Fc1ccc2nc(Nc3nc4c(s3)CCCC4)sc2c1 [(6-fluoro-1,3-benzothiazol-2-yl)-(4,5,6,7-tetrahydro-1,3-benzothiazol-2-yl)amine]
1990 | CCCn1c(C)cc(C(=O)COc2ncnc3sccc23)c1C [1-(2,5-dimethyl-1-propyl-3-pyrrolyl)-2-(4-thieno[2,3-d]pyrimidinyloxy)ethanone]

Same assay, conditions: inactive by the depositor's call

EC50 [nM] | SMILES
11300 | c1ccc2nc3c(nc2c1)c1ccccc1n3CCN1CCOCC1 [4-(2-indolo[3,2-b]quinoxalin-6-ylethyl)morpholine]

From BindingDB's records for doi:10.7270/Q24T6GSH (The Scripps Research Institute Molecular Screening Center, 2007)
